Measurements as given in article PMC6409085, “Three odorant-binding proteins are involved in the behavioral response of Sogatella furcifera to rice plant volatiles” (PeerJ, 2019).
Where “and” joins values, the source holds several entries; their conditions need not be identical. Equal entries are not always repeated.

Key:
[1] = test system: S. furcifera adults; experiment: Y-tube olfactometer behavioral trials; assay type: in vivo, Sogatella furcifera; conditions: odorant 50 µL/L vs hexane
Method in brief: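 Single S. furcifera adults (2 days post-emergence, starved 0.5 h) chose between odorant (100 µL of 50 µL/L on filter paper) and hexane control in a glass Y-tube, charcoal-filtered humidified air 300 mL/min per arm, 25 ± 1 °C, 50% RH. Choice scored if insect passed half an arm and stayed >1 min within 10 min; 45 insects per compound, chi-squared test.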

[2] = molecular target: SfurOBP2 (Sogatella furcifera, UniProt V5T759); experiment: biochemical; assay type: binding
Sequence of SfurOBP2 (V5T759 entry or part of it): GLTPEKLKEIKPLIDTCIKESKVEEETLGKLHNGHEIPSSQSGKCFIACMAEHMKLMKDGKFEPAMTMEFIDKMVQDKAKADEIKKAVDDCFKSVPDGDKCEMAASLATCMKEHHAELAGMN
Method in brief: (§1)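 Fluorescence competitive binding with 1-NPN as reporter: 2.0 µM protein and 2.0 µM 1-NPN in 50 mM Tris-HCl pH 7.4, odorant added at 2–20 µM final. Excitation 337 nm, emission 390–490 nm read 2 min after addition, triplicates. Ki = IC50/(1 + [1-NPN]/K1-NPN).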

[3] = molecular target: SfurOBP3 (Sogatella furcifera, UniProt V5T818); experiment: biochemical; assay type: binding; conditions: for Fluorescence competitive binding assay, fluorescence intensity: OBP3, three replicate columns
Sequence of SfurOBP3 (V5T818 entry or part of it): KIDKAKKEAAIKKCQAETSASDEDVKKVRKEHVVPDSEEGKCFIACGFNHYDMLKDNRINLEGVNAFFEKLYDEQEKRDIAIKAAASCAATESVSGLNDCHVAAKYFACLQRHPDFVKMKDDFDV
Method in brief: as §1

[4] = molecular target: SfurOBP11 (Sogatella furcifera, UniProt V5T6E3); experiment: biochemical; assay type: binding
Sequence of SfurOBP11 (V5T6E3 entry or part of it): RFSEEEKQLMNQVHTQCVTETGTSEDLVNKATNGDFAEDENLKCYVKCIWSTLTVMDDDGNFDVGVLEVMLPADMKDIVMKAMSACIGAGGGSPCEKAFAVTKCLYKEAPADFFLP
Method in brief: as §1

[5] = molecular target: SfurOBP1 (Sogatella furcifera, UniProt V5T8N5); experiment: biochemical; assay type: binding; conditions: for Fluorescence competitive binding assay, fluorescence intensity: OBP1, three replicate columns
Sequence of SfurOBP1 (V5T8N5 entry or part of it): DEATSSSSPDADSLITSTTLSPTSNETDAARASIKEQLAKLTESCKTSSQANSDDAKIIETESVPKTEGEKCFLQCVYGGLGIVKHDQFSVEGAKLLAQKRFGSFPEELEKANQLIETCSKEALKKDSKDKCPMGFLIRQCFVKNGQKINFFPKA
Method in brief: as §1

CCCCCCCC [n-octane]
behavioral response of S. furcifera (in words) [1]: significantly repelled
number of insects choosing hexane arm ([1]; adults): 19
number of insects choosing volatilies arm ([1]; adults): 10
number of insects failed (no choice) ([1]; adults): 11
IC50 ([2]; SfurOBP2, protein and 1-NPN both 2.0 µM, competitor 2-20 µM, read-out: IC50): 19.9 µM
Fluorescence competitive binding assay, OBP2 (raw fluorescence reading) ([2]; ligand concentration 2 (unit not given), replicate column 1 of 3): 18817
Fluorescence competitive binding assay, OBP2 (raw fluorescence reading) ([2]; ligand concentration 2 (unit not given), replicate column 2 of 3): 16925
Fluorescence competitive binding assay, OBP2 (raw fluorescence reading) ([2]; ligand concentration 2 (unit not given), replicate column 3 of 3): 16813
Fluorescence competitive binding assay, OBP2 (raw fluorescence reading) ([2]; ligand concentration 4 (unit not given), replicate column 1 of 3): 17604
Fluorescence competitive binding assay, OBP2 (raw fluorescence reading) ([2]; ligand concentration 4 (unit not given), replicate column 2 of 3): 17269
Fluorescence competitive binding assay, OBP2 (raw fluorescence reading) ([2]; ligand concentration 4 (unit not given), replicate column 3 of 3): 15635
Fluorescence competitive binding assay, OBP2 (raw fluorescence reading) ([2]; ligand concentration 6 (unit not given), replicate column 1 of 3): 16307
Fluorescence competitive binding assay, OBP2 (raw fluorescence reading) ([2]; ligand concentration 6 (unit not given), replicate column 2 of 3): 16391
Fluorescence competitive binding assay, OBP2 (raw fluorescence reading) ([2]; ligand concentration 6 (unit not given), replicate column 3 of 3): 15566
Fluorescence competitive binding assay, OBP2 (raw fluorescence reading) ([2]; ligand concentration 8 (unit not given), replicate column 1 of 3): 15494
Fluorescence competitive binding assay, OBP2 (raw fluorescence reading) ([2]; ligand concentration 8 (unit not given), replicate column 2 of 3): 15122
Fluorescence competitive binding assay, OBP2 (raw fluorescence reading) ([2]; ligand concentration 8 (unit not given), replicate column 3 of 3): 16014
Fluorescence competitive binding assay, OBP2 (raw fluorescence reading) ([2]; ligand concentration 10 (unit not given), replicate column 1 of 3): 15063
Fluorescence competitive binding assay, OBP2 (raw fluorescence reading) ([2]; ligand concentration 10 (unit not given), replicate column 2 of 3): 14978
Fluorescence competitive binding assay, OBP2 (raw fluorescence reading) ([2]; ligand concentration 10 (unit not given), replicate column 3 of 3): 15010
Fluorescence competitive binding assay, OBP2 (raw fluorescence reading) ([2]; ligand concentration 12 (unit not given), replicate column 1 of 3): 12606
Fluorescence competitive binding assay, OBP2 (raw fluorescence reading) ([2]; ligand concentration 12 (unit not given), replicate column 2 of 3): 12327
Fluorescence competitive binding assay, OBP2 (raw fluorescence reading) ([2]; ligand concentration 12 (unit not given), replicate column 3 of 3): 12885
Fluorescence competitive binding assay, OBP2 (raw fluorescence reading) ([2]; ligand concentration 14 (unit not given), replicate column 1 of 3): 12907
Fluorescence competitive binding assay, OBP2 (raw fluorescence reading) ([2]; ligand concentration 14 (unit not given), replicate column 2 of 3): 11889
Fluorescence competitive binding assay, OBP2 (raw fluorescence reading) ([2]; ligand concentration 14 (unit not given), replicate column 3 of 3): 12746
Fluorescence competitive binding assay, OBP2 (raw fluorescence reading) ([2]; ligand concentration 16 (unit not given), replicate column 1 of 3): 11757
Fluorescence competitive binding assay, OBP2 (raw fluorescence reading) ([2]; ligand concentration 16 (unit not given), replicate column 2 of 3): 11955
Fluorescence competitive binding assay, OBP2 (raw fluorescence reading) ([2]; ligand concentration 16 (unit not given), replicate column 3 of 3): 11106
Fluorescence competitive binding assay, OBP2 (raw fluorescence reading) ([2]; ligand concentration 18 (unit not given), replicate column 1 of 3): 11096
Fluorescence competitive binding assay, OBP2 (raw fluorescence reading) ([2]; ligand concentration 18 (unit not given), replicate column 2 of 3): 11451
Fluorescence competitive binding assay, OBP2 (raw fluorescence reading) ([2]; ligand concentration 18 (unit not given), replicate column 3 of 3): 11415
Fluorescence competitive binding assay, OBP2 (raw fluorescence reading) ([2]; ligand concentration 20 (unit not given), replicate column 1 of 3): 12132
Fluorescence competitive binding assay, OBP2 (raw fluorescence reading) ([2]; ligand concentration 20 (unit not given), replicate column 2 of 3): 10679
Fluorescence competitive binding assay, OBP2 (raw fluorescence reading) ([2]; ligand concentration 20 (unit not given), replicate column 3 of 3): 10932
Fluorescence competitive binding assay, fluorescence intensity ([3]; ligand concentration 2): 68170 and 67677 and 64610
Fluorescence competitive binding assay, fluorescence intensity ([3]; ligand concentration 4): 67293 and 62720 and 65655
Fluorescence competitive binding assay, fluorescence intensity ([3]; ligand concentration 6): 76553 and 64631 and 57162
Fluorescence competitive binding assay, fluorescence intensity ([3]; ligand concentration 8): 71829 and 61798 and 56284
Fluorescence competitive binding assay, fluorescence intensity ([3]; ligand concentration 10): 59554 and 55292 and 53530
Fluorescence competitive binding assay, fluorescence intensity ([3]; ligand concentration 12): 55099 and 48687 and 52349
Fluorescence competitive binding assay, fluorescence intensity ([3]; ligand concentration 14): 54529 and 46904 and 51749
Fluorescence competitive binding assay, fluorescence intensity ([3]; ligand concentration 16): 48833 and 47113 and 45049
Fluorescence competitive binding assay, fluorescence intensity ([3]; ligand concentration 18): 45841 and 47813 and 46502
Fluorescence competitive binding assay, fluorescence intensity ([3]; ligand concentration 20): 46899 and 47179 and 42858
IC50 ([3]; SfurOBP3, protein and 1-NPN both 2.0 µM, competitor 2-20 µM, read-out: IC50): > 20 µM
IC50 ([4]; SfurOBP11, protein and 1-NPN both 2.0 µM, competitor 2-20 µM, read-out: IC50): > 20 µM
Fluorescence intensity, fluorescence competitive binding assay, OBP11 ([4]; ligand concentration 2, replicate 1): 29315
Fluorescence intensity, fluorescence competitive binding assay, OBP11 ([4]; ligand concentration 2, replicate 2): 29331
Fluorescence intensity, fluorescence competitive binding assay, OBP11 ([4]; ligand concentration 2, replicate 3): 31569
Fluorescence intensity, fluorescence competitive binding assay, OBP11 ([4]; ligand concentration 4, replicate 1): 28278
Fluorescence intensity, fluorescence competitive binding assay, OBP11 ([4]; ligand concentration 4, replicate 2): 30015
Fluorescence intensity, fluorescence competitive binding assay, OBP11 ([4]; ligand concentration 4, replicate 3): 31065
Fluorescence intensity, fluorescence competitive binding assay, OBP11 ([4]; ligand concentration 6, replicate 1): 29774
Fluorescence intensity, fluorescence competitive binding assay, OBP11 ([4]; ligand concentration 6, replicate 2): 29054
Fluorescence intensity, fluorescence competitive binding assay, OBP11 ([4]; ligand concentration 6, replicate 3): 29894
Fluorescence intensity, fluorescence competitive binding assay, OBP11 ([4]; ligand concentration 8, replicate 1): 27943
Fluorescence intensity, fluorescence competitive binding assay, OBP11 ([4]; ligand concentration 8, replicate 2): 28064
Fluorescence intensity, fluorescence competitive binding assay, OBP11 ([4]; ligand concentration 8, replicate 3): 27821
Fluorescence intensity, fluorescence competitive binding assay, OBP11 ([4]; ligand concentration 10, replicate 1): 27525
Fluorescence intensity, fluorescence competitive binding assay, OBP11 ([4]; ligand concentration 10, replicate 2): 26078
Fluorescence intensity, fluorescence competitive binding assay, OBP11 ([4]; ligand concentration 10, replicate 3): 27163
Fluorescence intensity, fluorescence competitive binding assay, OBP11 ([4]; ligand concentration 12, replicate 1): 24273
Fluorescence intensity, fluorescence competitive binding assay, OBP11 ([4]; ligand concentration 12, replicate 2): 26556
Fluorescence intensity, fluorescence competitive binding assay, OBP11 ([4]; ligand concentration 12, replicate 3): 26721
Fluorescence intensity, fluorescence competitive binding assay, OBP11 ([4]; ligand concentration 14, replicate 1): 22920
Fluorescence intensity, fluorescence competitive binding assay, OBP11 ([4]; ligand concentration 14, replicate 2): 23793
Fluorescence intensity, fluorescence competitive binding assay, OBP11 ([4]; ligand concentration 14, replicate 3): 23357
Fluorescence intensity, fluorescence competitive binding assay, OBP11 ([4]; ligand concentration 16, replicate 1): 19613
Fluorescence intensity, fluorescence competitive binding assay, OBP11 ([4]; ligand concentration 16, replicate 2): 20535
Fluorescence intensity, fluorescence competitive binding assay, OBP11 ([4]; ligand concentration 16, replicate 3): 20285
Fluorescence intensity, fluorescence competitive binding assay, OBP11 ([4]; ligand concentration 18, replicate 1): 26966
Fluorescence intensity, fluorescence competitive binding assay, OBP11 ([4]; ligand concentration 18, replicate 2): 26281
Fluorescence intensity, fluorescence competitive binding assay, OBP11 ([4]; ligand concentration 18, replicate 3): 26291
Fluorescence intensity, fluorescence competitive binding assay, OBP11 ([4]; ligand concentration 20, replicate 1): 26611
Fluorescence intensity, fluorescence competitive binding assay, OBP11 ([4]; ligand concentration 20, replicate 2): 26798
Fluorescence intensity, fluorescence competitive binding assay, OBP11 ([4]; ligand concentration 20, replicate 3): 25454
Fluorescence competitive binding assay, fluorescence intensity ([5]; ligand concentration 2 (μM)): 5925 and 7991 and 7456
Fluorescence competitive binding assay, fluorescence intensity ([5]; ligand concentration 4 (μM)): 8340 and 7163 and 7902
Fluorescence competitive binding assay, fluorescence intensity ([5]; ligand concentration 6 (μM)): 8616 and 7456 and 8995
Fluorescence competitive binding assay, fluorescence intensity ([5]; ligand concentration 8 (μM)): 8020 and 7176 and 8029
Fluorescence competitive binding assay, fluorescence intensity ([5]; ligand concentration 10 (μM)): 7070 and 8613 and 8224
Fluorescence competitive binding assay, fluorescence intensity ([5]; ligand concentration 12 (μM)): 6680 and 8217 and 6786
Fluorescence competitive binding assay, fluorescence intensity ([5]; ligand concentration 14 (μM)): 7048 and 6801 and 7552
Fluorescence competitive binding assay, fluorescence intensity ([5]; ligand concentration 16 (μM)): 6817 and 7163 and 7002
Fluorescence competitive binding assay, fluorescence intensity ([5]; ligand concentration 18 (μM)): 8094 and 8514 and 8878
Fluorescence competitive binding assay, fluorescence intensity ([5]; ligand concentration 20 (μM)): 7869 and 7702 and 8440
IC50 ([5]; SfurOBP1, protein and 1-NPN both 2.0 µM, competitor 2-20 µM, read-out: IC50): > 20 µM
